# Source: patent US7767417B2, “Prenyl-electrostatic switch, and methods of use” (New York University, priority 2004, dated 2010)
# Legend:
# endogenous Ras = assay: Anti-Ras immunogold electron microscopy of Jurkat T cells; format: cell-based
# Method: Jurkat cells (in suspension) were treated with 100 nM bryostatin-1 or vehicle (dimethyl sulfoxide (“DMSO”)) for 30 minutes at 37° C. and then fixed with 2% formaldehyde and 0.2% glutaraldehyde in 0.1 M sodium phosphate buffer, pH 7.4. After washing in buffer, the cells were pelleted by centrifugation, embedded in 10% gelatin, cooled in ice, and cut into 1-mm^3 blocks in the cold room. The blocks were infused with 2.3 M sucrose at 4° C. for at least 2 hours, frozen in liquid nitrogen, and stored until cryo-ultramicrotomy. 100-nm-thick section were cut at −120° C. using an Ultracut T/FCS (Leica) equipped with an antistatic device (Diatome) and a diamond knife (Drukker). Ultrathin sections were picked up in a mix of 1.8% methylcellulose and 2.3 M sucrose (1:1) (Liou et al., “Improving Structural Integrity of Cryosections for Immunogold Labeling,” Histochemistry and Cell Biology 106:41-58 (1996), which is hereby incorporated by reference in its entirety). Cryosections were collected on formvar-coated copper grids and incubated with Ras10 monoclonal antibody (Upstate, Charlottesville, Va.) followed by rabbit anti-mouse antibodies and then protein A gold (Slot et al., “A New Method of Preparing Gold Probes for Multiple-Labeling Cytochemistry,” Eur. J. Cell. Biol. 38:87-93 (1985), which is hereby incorporated by reference in its entirety). After labeling, the sections were treated with 1% glutaraldehyde, counterstained with uranyl acetate, and embedded in methyl cellulose-uranyl acetate (Slot et al., “Immuno-Localization of the Insulin Regulatable Glucose Transporter in Brown Adipose Tissue of the Rat,” J. Cell. Biol. 113:123-135 (1991), which is hereby incorporated by reference in its entirety). Images were acquired with a JEOL electron microscope JEM-1200 EX II at 80 kV.
# K-Ras12V and Bcl-XL = assay: Colocalization and FRET between K-Ras12V and Bcl-XL on mitochondria; format: cell-based, human
# Method: (§1) Cells were stimulated while under continuous observation by adding 100 nM bryostatin-1 (Biomol), 100 nM PMA with or without 500 ng/ml lonomycin, or 5 ng/ml anti-CD3 to 35 mm MatTek plates maintained at 37° C. using a PDMI-2 microincubator (Harvard Apparatus, Holliston, Mass.). Treatment of cells with 100 nM Ro 31-8220 (Biomol, Plymouth Meeting, Pa.) or 15 μg/ml W-13 Hydrochloride (EMD Biosciences, San Diego, Calif.) was initiated 10 min prior to stimulations. Where indicated, 25 pM MitoTracker Red CMXRos (Molecular Probes, Eugene, Oreg.) was added 10 min prior to stimulation. Living cells were imaged with a Zeiss 510 inverted laser scanning confocal microscope (“LSM”). A minimum of five […] Z slices were acquired for each cell at each time point and representative images were chosen to display both plasma membrane and endomembranes. Fluorescence resonance energy transfer (“FRET”) on mitochondria between CFP-K-Ras and YFP-Bcl-XL was detected by bleaching the acceptor (YFP-Bcl-XL) on individual mitochondria and measuring the increase in CFP emission intensity as quenching was released. FRET efficiency was calculated as [ICFP(post-bleach)−ICFP(pre-bleach)]/ICFP(post-bleach). TIFF images were processed with Adobe Photoshop 7.0.
# a variety of tumors = settings: phase I and II trials, cited from earlier work
# [1] = system: NIH3T3 cells transformed with K-Ras12V or K-Ras12V181A; assay: Apoptosis of K-Ras transformed fibroblasts; format: cell-based
# Text: To confirm that K-Ras12V phosphorylated on S181, like phosphomimetic K-Ras12V181E, is pro-apoptotic, the capacity of PKC agonists to induce apoptosis of K-Ras transformed fibroblasts was examined. […] Thus, the sensitization to PKC-mediated apoptosis afforded by K-Ras transformation can be attributed to phosphorylation at S181.
# [2] = system: K-Ras12V-dependent tumors; assay: Tumor growth assay in nude mice; format: in vivo, athymic nude BALB/c mice; settings: intraperitoneal 25 μg/kg daily for 3 days
# Method: NIH 3T3 cells stably transfected as per the soft agar assays were injected (5×10^5 cells) subcutaneously into the flanks of 4-6 week old athymic nude BALB/c mice. After formation of palpable tumors, mice were treated daily for 3 days with intraperitoneal DMSO vehicle or bryostatin-1 (25 μg/kg). Tumor volume was measured daily and differences in growth rates were evaluated for statistical significance by ANOVA.
# K-Ras = assay: Metabolic labeling with [32P]orthophosphate of COS-1 cells expressing K-Ras constructs; format: cell-based, human; settings: 100 nM bryostatin-1 for 20 min
# Method: Twenty-four hours after transfection with various K-Ras constructs, COS-1 cells were pre-incubated at 37° C. for 4 hours in phosphate-free DMEM containing 10% dialyzed fetal calf serum (“FCS”). The medium was then replaced with phosphate-free DMEM containing 2 mCi of [^32P]orthophosphate. After 6 hours of labeling, the cells were stimulated with 100 nM bryostatin-1 for 20 min at 37° C. Jurkat cells were rinsed three times with prewarmed phosphate-free DMEM, and then incubated at 37° C. for 6 hours in phosphate-free DMEM containing 10% FBS (3:1 undialyzed:dialyzed) and 0.5 mCi/ml [^32P]orthophosphate. After incubation, the ^32P-labeled cells were rinsed with prewarmed phosphate-free DMEM, and then stimulated with either anti-CD3 (10 μg/ml) or vehicle control for 30 min at 37° C. Both types of cells were then lysed in RIPA buffer containing protease inhibitors (Roche, Basel, Switzerland) and 10 μM microcystin and 5 mM NaF. K-Ras was immunoprecipitated using agarose conjugated with Y13-259 monoclonal anti-Ras antibody (Santa Cruz Biotechnology, Inc., Santa Cruz, Calif.), analyzed by SDS-PAGE and visualized by phosphorimager.
# [3] = system: NIH 3T3 cells stably transfected with K-Ras12V or K-Ras12V181A; assay: Soft agar assay; format: cell-based; settings: two weeks
# Method: NIH 3T3 cells stably transfected with pCGN-hyg, or the same vector encoding K-Ras12V or K-Ras12V 181 A were plated as single cell suspensions (2×10^4 cells/35-mm well) in 0.4% agar over a bottom layer of 0.6% agar, both containing DMSO vehicle or various concentrations of bryostatin-1. After two weeks, the percentage of plated cells that formed colonies (>5 cell diameters across) was determined.
# GFP-K-Ras = assay: Live-cell imaging of GFP-K-Ras translocation from plasma membrane to internal membranes; format: cell-based, human; settings: for effect of inhibitor pretreatment on stimulated K-Ras translocation: 100 nM Ro 31-8220 or 15 μg/ml W-13, 10 min prior to stimulation with bryostatin-1 or PMA+Iono
# Method: COS-1, HeLa, and MDCK cells were maintained in 5% CO2 in Dulbecco's Modified Eagle Medium (“DMEM”) supplemented with 4 mM 1-glutamine, 1.5 g/L sodium bicarbonate, 4.5 g/L glucose, and 10% fetal bovine serum (“FBS”) (Cellgro®). MDCK cells stably expressing GFP-K-Ras or GFP-H-Ras were selected in G418 and sorted by FACS to yield cell lines expressing relatively low levels of the fluorescent Ras proteins (1-3 fold endogenous by immunoblots). NIH 3T3 cells were maintained in 10% CO2 in DMEM supplemented with 4 mM 1-glutamine, 1.5 g/L sodium bicarbonate, 4.5 g/L glucose, and 10% calf serum (Colorado Serum Co., Denver, Colo.). Jurkat T cells were maintained in 5% CO2 in RPMI containing 10% FBS. Cells to be examined by fluorescence microscopy were seeded at 2×10^5 per plate into 35 mm dishes containing a glass coverslip-sealed 15 mm cutout (MatTek, Ashland, Mass.) and transfected the next day using Lipofectamine (Invitrogen, Carlsbad, Calif.; NIH 3T3), Lipofectamine 2000 (Invitrogen, Carlsbad, Calif.; COS-1, HeLa, MDCK), or DMRIE (Invitrogen, Carlsbad, Calif.; Jurkat), according to the manufacturers' instructions. To ensure co-transfection of untagged cDNAs and fluorescent constructs, a DNA ratio of at least 5:1 (untagged:fluorescent) was used.
# as §1
# [4] = 100 nM bryostatin-1, living cells
structure (smiles),measurement,setting,value
CCC/C=C/C=C/C(=O)O[C@H]1/C(=C/C(=O)OC)C[C@H]2C[C@H]([C@@H](C)O)OC(=O)C[C@H](O)C[C@@H]3C[C@H](OC(C)=O)C(C)(C)[C@](O)(C[C@@H]4C/C(=C/C(=O)OC)C[C@H](/C=C/C(C)(C)[C@]1(O)O2)O4)O3 [bryostatin-1],10 nm gold particles per area of cytoplasm (excluding plasma membrane),"endogenous Ras; 100 nM bryostatin-1 30 min, untreated 6.4±0.5",31.0±1.1 gold particles/μm^2
same,gold particles associated with mitochondria,endogenous Ras; bryostatin-1 treated,49%
same,mitochondria associated gold particles located within 30 nm of the outer mitochondrial membrane,endogenous Ras; bryostatin-1 treated,81%
same,FRET efficiency between YFP-K-Ras12V and CFP-Bcl-XL on treated mitochondria,"K-Ras12V and Bcl-XL; Cos-1 cell, 5 min after bryostatin-1",17±8%
same,colocalization of CFP-K-Ras12V with YFP-Bcl-XL on outer mitochondrial membrane,K-Ras12V and Bcl-XL; after stimulation with PKC agonist,colocalized with YFP-Bcl-XL
same,clinical efficacy,a variety of tumors; variety of tumors,exhibited clinical efficacy
same,toxicity,a variety of tumors,minimal toxicity
same,induction of apoptosis in K-Ras12V versus K-Ras12V181A transformed cells,[1],induced apoptosis to a much higher extent in cells transformed with K-Ras12V than those transformed with K-Ras12V181A
same,growth of tumors established with K-Ras12V181A transformed fibroblasts,[2],resistant
same,growth of tumors established with K-Ras12V transformed fibroblasts,"[2]; p<0.05, ANOVA",sensitive
same,phosphorylation of K-Ras (32P incorporation),K-Ras,induced phosphorylation
same,soft agar growth induced by K-Ras12V181A,[3]; K-Ras12V181A,insensitive
same,K-Ras12V induced colony growth of fibroblasts in soft agar,[3]; K-Ras12V,inhibited
same,onset of translocation of GFP-K-Ras from the plasma membrane to intracellular membranes,GFP-K-Ras; [4],< 1 min
same,time to maximal translocation of GFP-K-Ras from the plasma membrane to intracellular membranes,GFP-K-Ras; [4],3 min
same,reversibility of effect on K-Ras localization,"GFP-K-Ras; COS-1 cells, GFP-K-Ras12V, 3 min treatment, 10 min washout",reversible
same,association of GFP-K-Ras / GFP-H-Ras with mitochondria,"GFP-K-Ras; MDCK cell lines stably expressing at endogenous levels, MitoTracker Red",stimulated rapid association of GFP-K-Ras but not GFP-H-Ras with mitochondria
Cn1cc(C2=C(c3cn(CCCSC(=N)N)c4ccccc34)C(=O)NC2=O)c2ccccc21 [Ro 31-8220],effect of inhibitor pretreatment on stimulated K-Ras translocation,GFP-K-Ras,completely blocked
NCCCCNS(=O)(=O)c1ccc2c(Cl)cccc2c1 [W-13],effect of inhibitor pretreatment on stimulated K-Ras translocation,GFP-K-Ras,had no effect
C=C1[C@@H](O)[C@@H]2O[C@]3(CC[C@H](/C=C/[C@@H](C)[C@@H]4CC(C)=C[C@@]5(O[C@H](C[C@@](C)(O)C(=O)O)CC[C@H]5O)O4)O3)CC[C@H]2O[C@@H]1[C@@H](O)C[C@H](C)[C@H]1O[C@@]2(CCCCO2)CC[C@H]1C [okadaic acid],effect on GFP-K-Ras localization (translocation/internalization),"GFP-K-Ras; 100 nM PMA with or without 500 ng/ml ionomycin, compared with bryostatin-1",induced partial internalization
